According to patent US11623919B2, “Heterocyclic P2X7 antagonists” (AXXAM S.P.A., priority 2017, dated 2023):

Assays:
Experiment in all cases: Screen Quest Fluo-8 No Wash Calcium Assay (Bz-ATP evoked Ca2+ influx, FLIPR)
Assay type in all cases: cell-based
[1] = target: T1, P2X7 receptor (Mus musculus, UniProt Q9Z1M0); settings: mP2X7; HEK-293 cells stably transfected with P2X7 receptor, Bz-ATP at EC80, Fluo-8 NW; potency ranges A-D
T1 construct: mP2X7 (IC50; nM); other: mP2X7; HEK-293 cells stably transfected with P2X7 receptor, Bz-ATP at EC80, Fluo-8 NW; potency
T1 sequence (Q9Z1M0 1-595): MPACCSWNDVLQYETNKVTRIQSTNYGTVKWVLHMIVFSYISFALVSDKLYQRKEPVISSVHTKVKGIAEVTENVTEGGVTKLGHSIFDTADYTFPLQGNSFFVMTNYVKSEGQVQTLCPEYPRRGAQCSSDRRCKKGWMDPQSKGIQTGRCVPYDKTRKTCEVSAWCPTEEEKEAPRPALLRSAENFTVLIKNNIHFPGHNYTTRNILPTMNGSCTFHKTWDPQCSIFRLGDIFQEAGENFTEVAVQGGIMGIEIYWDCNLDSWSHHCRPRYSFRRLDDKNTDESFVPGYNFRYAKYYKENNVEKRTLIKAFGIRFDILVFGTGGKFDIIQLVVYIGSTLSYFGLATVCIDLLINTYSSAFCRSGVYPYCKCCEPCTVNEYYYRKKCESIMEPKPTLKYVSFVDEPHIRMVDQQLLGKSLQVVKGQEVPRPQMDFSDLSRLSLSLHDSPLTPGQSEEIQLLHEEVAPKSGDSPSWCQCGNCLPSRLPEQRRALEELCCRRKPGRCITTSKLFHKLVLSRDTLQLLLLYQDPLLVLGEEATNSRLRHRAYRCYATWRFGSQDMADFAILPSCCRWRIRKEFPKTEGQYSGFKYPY
How it was run: (§1)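 HEK-293 cells stably expressing P2X7 were loaded with Fluo-8 NW for 1 h at RT, then given compound, and 5 min later Bz-ATP at EC80. Fluorescence was read by FLIPR in low divalent cation buffer (0.3 mM Ca2+, 0 mM Mg2+). IC50 came from percent inhibition relative to reference antagonist A438079.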

[2] = target: T2, P2X7 receptor (Rattus norvegicus, UniProt Q64663); settings: rP2X7; HEK-293 cells stably transfected with P2X7 receptor, Bz-ATP at EC80, Fluo-8 NW; potency ranges A-D
T2 construct: rP2X7 (IC50; nM); other: rP2X7; HEK-293 cells stably transfected with P2X7 receptor, Bz-ATP at EC80, Fluo-8 NW; potency
T2 sequence (Q64663 1-595): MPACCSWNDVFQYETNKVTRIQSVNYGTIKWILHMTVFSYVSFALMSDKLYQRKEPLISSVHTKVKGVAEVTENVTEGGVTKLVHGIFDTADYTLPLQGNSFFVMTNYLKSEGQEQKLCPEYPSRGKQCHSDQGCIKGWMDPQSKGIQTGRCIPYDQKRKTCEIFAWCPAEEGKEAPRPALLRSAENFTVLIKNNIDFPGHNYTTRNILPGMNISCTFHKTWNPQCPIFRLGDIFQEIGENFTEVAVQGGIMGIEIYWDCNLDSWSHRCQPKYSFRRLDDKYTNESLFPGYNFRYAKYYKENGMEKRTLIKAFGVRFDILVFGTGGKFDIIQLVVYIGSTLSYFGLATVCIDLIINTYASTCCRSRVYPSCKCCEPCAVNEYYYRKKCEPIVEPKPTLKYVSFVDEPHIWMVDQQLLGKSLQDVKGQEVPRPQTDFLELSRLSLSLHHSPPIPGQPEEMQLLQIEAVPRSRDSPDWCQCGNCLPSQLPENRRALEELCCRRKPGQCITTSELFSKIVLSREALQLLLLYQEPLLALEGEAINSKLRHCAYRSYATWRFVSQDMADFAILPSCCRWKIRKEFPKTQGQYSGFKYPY
How it was run: as §1

[3] = target: T3, P2X7 receptor (Homo sapiens, UniProt Q99572); design: hP2X7 (IC50; nM); other: hP2X7; HEK-293 cells stably transfected with P2X7 receptor, Bz-ATP at EC80, Fluo-8 NW; potency; settings: hP2X7; HEK-293 cells stably transfected with P2X7 receptor, Bz-ATP at EC80, Fluo-8 NW; potency ranges A-D
T3 sequence (Q99572 1-595): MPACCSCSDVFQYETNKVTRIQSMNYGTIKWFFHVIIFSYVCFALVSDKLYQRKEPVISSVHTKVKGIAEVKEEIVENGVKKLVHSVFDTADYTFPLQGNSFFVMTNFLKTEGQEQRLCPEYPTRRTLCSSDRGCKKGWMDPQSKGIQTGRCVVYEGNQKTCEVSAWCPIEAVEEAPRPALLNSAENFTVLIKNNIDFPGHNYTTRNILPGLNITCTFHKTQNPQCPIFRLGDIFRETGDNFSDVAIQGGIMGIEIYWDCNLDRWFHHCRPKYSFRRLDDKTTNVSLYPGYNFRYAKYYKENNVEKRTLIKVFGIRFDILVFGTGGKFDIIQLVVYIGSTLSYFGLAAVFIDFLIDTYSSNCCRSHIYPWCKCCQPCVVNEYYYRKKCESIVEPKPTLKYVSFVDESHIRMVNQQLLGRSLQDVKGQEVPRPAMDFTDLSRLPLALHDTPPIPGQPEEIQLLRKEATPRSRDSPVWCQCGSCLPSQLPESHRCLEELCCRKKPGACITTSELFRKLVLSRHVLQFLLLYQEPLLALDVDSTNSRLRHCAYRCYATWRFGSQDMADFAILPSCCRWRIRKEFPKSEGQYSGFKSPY
How it was run: as §1

Row | Structure (SMILES) | IC50 [1] | IC50 [2] | IC50 [3]
1 | COCn1c(Cc2c(F)cccc2Cl)noc1=O [Example 100, 3-[(2-chloro-6-fluorophenyl)methyl]-4-(methoxymethyl)-4,5-dihydro-1,2,4-oxadiazol-5-one] | > 10000 nM | > 10000 nM | > 10000 nM
2 | O=c1onc(Cc2ccccc2)n1Cc1ccc(F)cc1 [Example 108, 3-benzyl-4-[(4-fluorophenyl)methyl]-4,5-dihydro-1,2,4-oxadiazol-5-one] | 1000 to 10000 nM | 1000 to 10000 nM | 1000 to 10000 nM
3 | COc1cccc(Cc2noc(=O)n2Cc2ccc(F)cc2)c1 [Example 109, 4-[(4-fluorophenyl)methyl]-3-[(3-methoxyphenyl)methyl]-4,5-dihydro-1,2,4-oxadiazol-5-one] | > 10000 nM | 1000 to 10000 nM | 1000 to 10000 nM
4 | COc1ccc(Cc2noc(=O)n2CC2CCCCC2)cc1 [Example 112, 4-(cyclohexylmethyl)-3-[(4-methoxyphenyl)methyl]-4,5-dihydro-1,2,4-oxadiazol-5-one] | 1000 to 10000 nM | 200 to 1000 nM | 1000 to 10000 nM
5 | O=c1onc(Cc2cccc(C(F)(F)F)c2Cl)n1CC1CCCCC1 [Example 113, 3-{[2-chloro-3-(trifluoromethyl)phenyl]methyl}-4-(cyclohexylmethyl)-4,5-dihydro-1,2,4-oxadiazol-5-one] | 1000 to 10000 nM | 1000 to 10000 nM | 1000 to 10000 nM
6 | CC(C)(c1c(F)cccc1Cl)c1noc(=O)n1CC1CCCCC1 [Example 121, 3-[2-(2-chloro-6-fluorophenyl)propan-2-yl]-4-(cyclohexylmethyl)-4,5-dihydro-1,2,4-oxadiazol-5-one] | > 10000 nM | > 10000 nM | > 10000 nM
7 | O=c1onc(Cc2cccnc2)n1CC1CCCCC1 [Example 123, 4-(cyclohexylmethyl)-3-(pyridin-3-ylmethyl)-4,5-dihydro-1,2,4-oxadiazol-5-one] | 1000 to 10000 nM | 1000 to 10000 nM | 1000 to 10000 nM
8 | COc1cccc(Cc2noc(=O)n2CC2CCCCC2)c1 [Example 127, 4-(cyclohexylmethyl)-3-[(3-methoxyphenyl)methyl]-4,5-dihydro-1,2,4-oxadiazol-5-one] | > 10000 nM | > 10000 nM | > 10000 nM
9 | O=c1onc(CC2CCCCC2)n1Cc1ccc(F)cc1 [Example 131, 3-(cyclohexylmethyl)-4-[(4-fluorophenyl)methyl]-4,5-dihydro-1,2,4-oxadiazol-5-one] | 1000 to 10000 nM | 1000 to 10000 nM | 1000 to 10000 nM
10 | O=c1onc(CC2CCC(F)(F)CC2)n1CC1CCCCC1 [Example 133, 4-(cyclohexylmethyl)-3-[(4,4-difluorocyclohexyl)methyl]-4,5-dihydro-1,2,4-oxadiazol-5-one] | > 10000 nM | 1000 to 10000 nM | 1000 to 10000 nM

Next, values leading:

Row | IC50 [1] | IC50 [2] | IC50 [3] | Structure (SMILES)
11 | > 10000 nM | 1000 to 10000 nM | > 10000 nM | O=c1onc(Cc2c(F)cccc2Cl)n1CC1COCCO1 (stereo not drawn) [Example 98, 3-[(2-chloro-6-fluorophenyl)methyl]-4-(1,4-dioxan-2-ylmethyl)-4,5-dihydro-1,2,4-oxadiazol-5-one]
12 | > 10000 nM | > 10000 nM | > 10000 nM | CCOCn1c(Cc2c(F)cccc2Cl)noc1=O [Example 101, 3-[(2-chloro-6-fluorophenyl)methyl]-4-(ethoxymethyl)-4,5-dihydro-1,2,4-oxadiazol-5-one]
13 | > 10000 nM | 1000 to 10000 nM | 1000 to 10000 nM | CCCOCn1c(Cc2c(F)cccc2Cl)noc1=O [Example 102, 3-[(2-chloro-6-fluorophenyl)methyl]-4-(propoxymethyl)-4,5-dihydro-1,2,4-oxadiazol-5-one]
14 | > 10000 nM | > 10000 nM | > 10000 nM | O=c1onc(Cc2ccccn2)n1Cc1ccc(F)cc1 [Example 104, 4-[(4-fluorophenyl)methyl]-3-(pyridin-2-ylmethyl)-4,5-dihydro-1,2,4-oxadiazol-5-one]
15 | 1000 to 10000 nM | 1000 to 10000 nM | 1000 to 10000 nM | O=c1onc(Cc2ccccc2C(F)(F)F)n1Cc1ccc(F)cc1 [Example 105, 4-[(4-fluorophenyl)methyl]-3-{[2-(trifluoromethyl)phenyl]methyl}-4,5-dihydro-1,2,4-oxadiazol-5-one]
16 | 1000 to 10000 nM | 1000 to 10000 nM | 1000 to 10000 nM | O=c1onc(Cc2cccc(F)c2)n1Cc1ccc(F)cc1 [Example 107, 3-[(3-fluorophenyl)methyl]-4-[(4-fluorophenyl)methyl]-4,5-dihydro-1,2,4-oxadiazol-5-one]
17 | > 10000 nM | 1000 to 10000 nM | > 10000 nM | O=c1onc(Cc2ccccn2)n1CC1CCCCC1 [Example 110, 4-(cyclohexylmethyl)-3-(pyridin-2-ylmethyl)-4,5-dihydro-1,2,4-oxadiazol-5-one]
18 | 200 to 1000 nM | 1000 to 10000 nM | > 10000 nM | O=c1onc(Cc2ccncc2)n1CC1CCCCC1 [Example 111, 4-(cyclohexylmethyl)-3-(pyridin-4-ylmethyl)-4,5-dihydro-1,2,4-oxadiazol-5-one]
19 | > 10000 nM | 1000 to 10000 nM | > 10000 nM | CC(c1c(F)cccc1Cl)c1noc(=O)n1CC1CCCCC1 (stereo not drawn) [Example 122, 3-[1-(2-chloro-6-fluorophenyl)ethyl]-4-(cyclohexylmethyl)-4,5-dihydro-1,2,4-oxadiazol-5-one]
20 | 1000 to 10000 nM | 200 to 1000 nM | 1000 to 10000 nM | O=c1onc(Cc2cccc(F)c2)n1CC1CCCCC1 [Example 125, 4-(cyclohexylmethyl)-3-[(3-fluorophenyl)methyl]-4,5-dihydro-1,2,4-oxadiazol-5-one]
21 | 1000 to 10000 nM | 200 to 1000 nM | 1000 to 10000 nM | O=c1onc(Cc2ccccc2)n1CC1CCCCC1 [Example 126, 3-benzyl-4-(cyclohexylmethyl)-4,5-dihydro-1,2,4-oxadiazol-5-one]
22 | 1000 to 10000 nM | 1000 to 10000 nM | > 10000 nM | O=c1onc(CC2CCCCC2)n1CC1CCCCC1 [Example 129, bis(cyclohexylmethyl)-4,5-dihydro-1,2,4-oxadiazol-5-one]
23 | > 10000 nM | > 10000 nM | 200 to 1000 nM | O=c1onc(C(O)c2cccc(C(F)(F)F)c2Cl)n1Cc1c(F)cccc1Cl (stereo not drawn) [Example 135, 3-{[2-chloro-3-(trifluoromethyl)phenyl](hydroxy)methyl}-4-[(2-chloro-6-fluorophenyl)methyl]-4,5-dihydro-1,2,4-oxadiazol-5-one]
